Data on 44 substances can be found in US8389679B2, “Targeted antimicrobial moieties” (priority 2009, dated 2013).

“Also recorded” adds a separate entry of the source.

For this test, the system named is target microorganisms. The test can be described thus: Screen of synthesized peptides for binding to target microorganisms (targeting peptides, Tables 2 and 3). Conditions: microorganism(s) the targeting peptide was identified as binding to (Table 3). The procedure:
Once noted, these peptides were batch synthesized on a multiplex peptide synthesizer, yielding 5-10 mg of each peptide that could readily be screened for biological activity (e.g., binding activity and/or antimicrobial activity.
Other suitable targeting peptides include the peptides that have been identified as binding to particular target organisms as shown in Table 3 and/or Table 4.
For “1T-135 (FESLLPQATKKIVNNKGSKINKIF; synthetic novel tartgeting peptide IT-135)”, the “Target(s)” value is on record as “A. naeslundii, P. gingivalis; also recorded: S. epidermidis,; also recorded: S. gordonii, S. mitis, S. mutans,; also recorded: S. oralis, S. salivarious,; also recorded: S. sanguinis”. For “1T-140 (IKGTIAFVGEDYVEIRVDKGVKLTFRKSAIANVINNNQQ; synthetic novel tartgeting peptide IT-140)” the value was “A. naeslundii, F. nucleatum,; also recorded: P. gingivalis; also recorded: S. epidermidis,; also recorded: S. gordonii, S. mitis, S. mutans,; also recorded: S. oralis, S. salivarious,; also recorded: S. sanguinis”. On to “1T-97 (GVAERNLDRITVAVAIIWTITIVGLGLVAKLG; synthetic novel tartgeting peptide IT-97)”, for which the “Target(s)” value is listed as “A. naeslundii, F. nucleatum,; also recorded: P. gingivalis; also recorded: S. epidermidis,; also recorded: S. gordonii, S. mitis, S. mutans,; also recorded: S. oralis, S. salivarious,; also recorded: S. sanguinis”.

For the substance “1T-70 (NRQAQGERAHGEQQG; synthetic novel tartgeting peptide IT-70)”, the “Target(s)” value was “S. aureus; also recorded: C. jeikeium; also recorded: P. aeruginosa”. Take “1T-95 (GHLLRVGGRVGGVGGVAGACAQPFGGQ; synthetic novel tartgeting peptide IT-95)”: the “Target(s)” value was “S. gordonii, S. mitis, S. mutans,; also recorded: S. oralis, S. sanguinis”. For “1T-76 (EMRLSKFFRDFILWRKK; synthetic novel tartgeting peptide IT-76)” the value was “S. pneumoniae”; for “1T-75 (GVARGLQLGIKTRTQWGAATGAA; synthetic novel tartgeting peptide IT-75)”, “S. pneumoniae”; for “1T-56 (LALIGAGIWMIRKG; synthetic novel tartgeting peptide IT-56)”, “C. xerosis; also recorded: P. aeruginosa”. Regarding “1T-126 (QGLARPVLRRIPL; synthetic novel tartgeting peptide IT-126)”, the “Target(s)” value is on record as “S. gordonii, S. mitis, S. mutans”. Consider “1T-19 (PGAFRNPQMPRG; synthetic novel tartgeting peptide IT-19)”, for which the “Target(s)” value is on record as “S. aureus; also recorded: S. epidermidis; also recorded: P. aeruginosa”.

As for “1T-154 (YFSFLEIVGMARR; synthetic novel tartgeting peptide IT-154)”, the “Target(s)” value is “P. gingivalis”.

Take “1T-14 (ALAGLAGLISGK; synthetic novel tartgeting peptide IT-14)”: the “Target(s)” value was “S. mutans; also recorded: S. aureus; also recorded: S. epidermidis; also recorded: C. xerosis”.

“1T-28 (VSRDEAMEFIDREWTTLQPAGKSHA; synthetic novel tartgeting peptide IT-28)”: the “Target(s)” value is “P. aeruginosa”. For “1T-152 (YVSADESAYNHIVTDDIPLADRRIEAVQQ; synthetic novel tartgeting peptide IT-152)”, the “Target(s)” value was “A. naeslundii, F. nucleatum,; also recorded: P. gingivalis; also recorded: S. epidermidis,; also recorded: S. gordonii, S. mitis, S. mutans,; also recorded: S. oralis, S. salivarious,; also recorded: S. sanguinis”. Regarding “1T-96 (VAGACAQPFGGQ; synthetic novel tartgeting peptide IT-96)”, the “Target(s)” value is “S. gordonii, S. mitis, S. mutans,; also recorded: S. oralis, S. sanguinis”. For the substance “1T-15 (DVILRVEAQ; synthetic novel tartgeting peptide IT-15)”, the “Target(s)” value is recorded as “S. mutans”. With “1T-122 (GAIPDPVTHRVDWEEDHQTRPSR; synthetic novel tartgeting peptide IT-122)”, the “Target(s)” value was “S. mitis”. For “1T-149 (SVRAVKPIDETVARHFPGDFIVN; synthetic novel tartgeting peptide IT-149)” the value was “A. naeslundii, F. nucleatum,; also recorded: P. gingivalis,; also recorded: T. denticolaS. gordonii,; also recorded: S. mitis, S. mutans, S. oralis,; also recorded: S. salivarious, S. sanguinis”.

As for “1T-59 (AVGNNLGKDNDSGHRGKKHRKHKHR; synthetic novel tartgeting peptide IT-59)”, the “Target(s)” value was “S. aureus; also recorded: S. epidermidis; also recorded: P. aeruginosa”. Then “1T-153 (YIACPGYFY; synthetic novel tartgeting peptide IT-153)”, with “A. naeslundii, F. nucleatum,; also recorded: P. gingivalis; also recorded: S. epidermidis,; also recorded: S. gordonii, S. mitis, S. mutans,; also recorded: S. oralis, S. salivarious,; also recorded: S. sanguinis”; and “1T-42 (TVLDWLSLALATGLFVYLLVALLRADRA; synthetic novel tartgeting peptide IT-42)”, with “S. aureus; also recorded: S. epidermidis; also recorded: C. xerosis; also recorded: C. striatum; also recorded: P. aeruginosa”; and “1T-108 (WGPLGPERPLW; synthetic novel tartgeting peptide IT-108)”, with “S. gordonii, S. mitis, S. mutans,; also recorded: S. oralis, S. salivarious,; also recorded: S. sanguinis”. Take “1T-111 (GRLSRREEDPATSIILLRGAYRMAVF; synthetic novel tartgeting peptide IT-111)”: the “Target(s)” value was “A. naeslundii, F. nucleatum,; also recorded: P. gingivalis; also recorded: S. epidermidis,; also recorded: S. gordonii, S. mitis, S. mutans,; also recorded: S. oralis, S. salivarious,; also recorded: S. sanguinis”. For “1T-67 (GQRQRLTCGRVSGCSEGPSREAAR; synthetic novel tartgeting peptide IT-67)” the value was “S. aureus; also recorded: S. epidermidis; also recorded: C. jeikeium; also recorded: C. xerosis; also recorded: C. striatum; also recorded: P. aeruginosa”. Turning to “1T-17 (NNAIVYIS; synthetic novel tartgeting peptide IT-17)”, the “Target(s)” value was “S. mutans”. In the case of “1T-110 (LAAKTAVCVGRAFM; synthetic novel tartgeting peptide IT-110)”, the “Target(s)” value is given as “A. naeslundii, P. gingivalis; also recorded: S. epidermidis,; also recorded: S. gordonii, S. mitis, S. mutans,; also recorded: S. oralis, S. sanguinis”. Then “1T-113 (HGAHQRTGQRLHHHRGRTVSGCRQNPVAGVDPDEHR; synthetic novel tartgeting peptide IT-113)”, with “S. mitis”. In the case of “1T-6 (KFINGVLSQFVLERK; synthetic novel tartgeting peptide IT-6)”, the “Target(s)” value was “S. mutans”.

Regarding “1T-90 (RNVIGQVL; synthetic novel tartgeting peptide IT-90)”, the “Target(s)” value is on record as “S. gordonii, S. mitis, S. mutans,; also recorded: S. oralis, S. sanguinis”. Turning to “1T-83 (QKPRKNETFIGYIQRYDIDGNGYQSLPCPQN; synthetic novel tartgeting peptide IT-83)”, the “Target(s)” value is “S. pneumoniae”. Turning to “1T-53 (SDILAEMFEKGELQTLVKDAAAKANA; synthetic novel tartgeting peptide IT-53)”, the “Target(s)” value is on record as “P. aeruginosa”. “1T-143 (MPKRHYYKLEAKALQFGLPFAYSPIQLLK; synthetic novel tartgeting peptide IT-143)”: the “Target(s)” value is reported as “A. naeslundii, F. nucleatum,; also recorded: P. gingivalis; also recorded: S. epidermidis,; also recorded: S. gordonii, S. mitis, S. mutans,; also recorded: S. oralis, S. salivarious,; also recorded: S. sanguinis”.

In the case of “1T-129 (YDKYIKYLSIQPPFIVYFI; synthetic novel tartgeting peptide IT-129)”, the “Target(s)” value was “A. naeslundii, P. gingivalis; also recorded: S. epidermidis,; also recorded: S. gordonii, S. mitis, S. mutans,; also recorded: S. oralis, S. salivarious,; also recorded: S. sanguinis”.

On to “1T-132 (YSKKLFEYFYFIIFILIRYLIFYKIIQNKNYYINNIAYN; synthetic novel tartgeting peptide IT-132)”, for which the “Target(s)” value is “A. naeslundii, F. nucleatum,; also recorded: P. gingivalis; also recorded: S. epidermidis,; also recorded: S. gordonii, S. mitis, S. mutans,; also recorded: S. oralis, S. salivarious,; also recorded: S. sanguinis”. For the substance “1T-62 (GCKGCAQRDPCAEPEPYFRLR; synthetic novel tartgeting peptide IT-62)”, the “Target(s)” value was “S. epidermidis; also recorded: P. aeruginosa”.

Consider “1T-46 (FSFKQRVMFRKEVERLR; synthetic novel tartgeting peptide IT-46)”, for which the “Target(s)” value is listed as “S. aureus; also recorded: S. epidermidis; also recorded: C. jeikeium; also recorded: C. xerosis; also recorded: C. striatum; also recorded: P. aeruginosa”. For “1T-125 (DAITGGNPPLSDTDGLRP; synthetic novel tartgeting peptide IT-125)”, the “Target(s)” value is “S. epidermidis, S. gordonii,; also recorded: S. mutans, S. oralis”. For the substance “1T-142 (FTQGIKRIVLKRLKED; synthetic novel tartgeting peptide IT-142)”, the “Target(s)” value is given as “A. naeslundii, F. nucleatum,; also recorded: P. gingivalis,; also recorded: T. denticolaS. gordonii,; also recorded: S. mitis, S. mutans, S. oralis,; also recorded: S. salivarious, S. sanguinis”. For “1T-69 (ILSQEADRKKLF; synthetic novel tartgeting peptide IT-69)”, the “Target(s)” value is listed as “S. mutans; also recorded: P. aeruginosa”. For “1T-49 (SLVRIHDQQPWVTRGAFIDAARTCS; synthetic novel tartgeting peptide IT-49)”, the “Target(s)” value was “S. aureus; also recorded: S. epidermidis; also recorded: C. jeikeium; also recorded: P. aeruginosa”. For “1T-80 (GGNLGPGFGVIIP; synthetic novel tartgeting peptide IT-80)”, the “Target(s)” value is given as “S. pneumoniae”. “1T-61 (HATLLPAVREAISRQLLPALVPRG; synthetic novel tartgeting peptide IT-61)”: the “Target(s)” value is “P. aeruginosa”. For “1T-8 (FSVAACGEQRAVTFVLLIEDLI; synthetic novel tartgeting peptide IT-8)” the value was “M. xanthus”; for “1T-150 (YINRRLKKAFSDADIKEAPAEFYEELRRVQYV; synthetic novel tartgeting peptide IT-150)”, “A. naeslundii, F. nucleatum,; also recorded: P. gingivalis,; also recorded: T. denticolaS. gordonii,; also recorded: S. mitis, S. mutans, S. oralis,; also recorded: S. salivarious, S. sanguinis”.
